According to paper PMC10526248, “Zeolitic Imidazolate Framework-8 Composite-Based Enzyme-Linked Aptamer Assay for the Sensitive Detection of Deoxynivalenol” (Biosensors, 2023):

Target: T1, horseradish peroxidase (HRP) (Armoracia rusticana, UniProt P00433)
T1 construct: gene PRXC1A; free enzyme for this row
T1 sequence (P00433 31-338): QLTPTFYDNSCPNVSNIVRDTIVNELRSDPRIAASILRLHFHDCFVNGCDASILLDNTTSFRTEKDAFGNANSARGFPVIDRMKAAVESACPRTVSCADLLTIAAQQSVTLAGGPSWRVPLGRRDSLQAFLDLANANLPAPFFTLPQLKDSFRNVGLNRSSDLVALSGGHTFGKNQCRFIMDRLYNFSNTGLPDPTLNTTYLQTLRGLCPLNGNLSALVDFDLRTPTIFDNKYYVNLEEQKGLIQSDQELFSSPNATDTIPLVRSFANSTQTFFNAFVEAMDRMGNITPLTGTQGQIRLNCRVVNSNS
Assay: TMB oxidation, absorbance at […] nm after acid stop
Type: biochemical
Conditions: free HRP; co-substrate H2O2; oxidation also seen with ZIF-8-encapsulated HRP

Structure (SMILES): Cc1cc(-c2cc(C)c(N)c(C)c2)cc(C)c1N [TMB, 3,3′,5,5′-Tetramethylbenzidine]
- TMB oxidation, absorbance at 450 nm after acid stop: HRP, HRP@ZIF-8, HRP&Au@ZIF-8 and HRP&Au@ZIF-8/cDNA were all able to catalyze TMB oxidation
